Read-outs that look alike come from different tables or passages of the source.
Key:
T. b. brucei s427 [1] = tested on: T. b. brucei s427; design: method as in earlier work; conditions: cited from earlier work
[2] = tested on: Leishmania mexicana promastigotes; experiment: resazurin drug sensitivity assay, L. mexicana promastigotes; type: cell-based; conditions: for L. mexicana SI: SI = EC50 (HEK)/EC50(parasite)
T. b. brucei s427 [3] = experiment: resazurin drug sensitivity assay, T. b. brucei s427 wild-type bloodstream forms; type: cell-based, Trypanosoma brucei brucei; conditions: for T. b. brucei s427 SI: SI = EC50 (HEK)/EC50(parasite); for EC50: read-out: T. b. brucei s427 EC50
T. equiperdum (BoTat1) = experiment: resazurin drug sensitivity assay, T. equiperdum; type: cell-based, Trypanosoma equiperdum; conditions: for T. equiperdum RF: RF = EC50 (parasite)/EC50(s427 WT); for T. equiperdum SI: SI = EC50 (HEK)/EC50(parasite)
[4] = tested on: Trypanosoma congolense (IL3000); experiment: resazurin drug sensitivity assay, T. congolense; type: cell-based; conditions: for T. congolense RF: RF = EC50 (parasite)/EC50(s427 WT); for T. congolense SI: SI = EC50 (HEK)/EC50(parasite)
T. b. brucei B48 = experiment: microbe, parasite or virus in culture; type: cell-based, Trypanosoma brucei brucei; conditions: for T. b. brucei B48 RF: RF = EC50 (parasite)/EC50(s427 WT); for T. b. brucei B48 SI: SI = EC50 (HEK)/EC50(parasite)
T. evansi (AnTat 3/3) = experiment: resazurin drug sensitivity assay, T. evansi; type: cell-based, Trypanosoma evansi; conditions: for T. evansi RF: RF = EC50 (parasite)/EC50(s427 WT); for T. evansi SI: SI = EC50 (HEK)/EC50(parasite); for EC50: Trypanosoma evansi
HEK 293 cells = experiment: toxicity assay on HEK 293 cells (Alamar Blue); conditions: for toxicity to HEK 293 cells at the highest concentration tested: highest tested concentration 100 or 200 µg/mL (1: 300 µM; 4: 140 µM; 5: 427 µM); for EC50: read-out: HEK 293 EC50, average ± SEM
[5] = tested on: trypanosomes of the Trypanozoon subgenus (T. b. brucei, T. evansi and T. equiperdum); experiment: resazurin assay, summary over Trypanozoon subgenus trypanosomes; type: cell-based, Trypanosoma; conditions: for EC50: Trypanosoma brucei, T. b. brucei s427, B48, T. evansi, T. equiperdum, read-out: EC50 values against trypanosomes of the Trypanozoon subgenus (range)
T. b. brucei s427 [6] = tested on: T. b. brucei s427; design: method as in PMID 27313159; conditions: cited from earlier work
all trypanosome species = experiment: resazurin assay, summary over trypanosome species; type: cell-based, Trypanosoma
[7] = tested on: kinetoplastid parasites (trypanosomes and L. mexicana); experiment: resazurin assay, summary of anti-kinetoplastid activity across the board; type: cell-based; conditions: Leishmania mexicana, read-out: EC50, anti-kinetoplastid activity across the board (range)
T. b. brucei s427 [8] = tested on: T. b. brucei s427; design: method as in doi:10.3390/M1070; conditions: read-out: EC50 against T. b. brucei s427; cited from earlier work
macrophages RAW264.7 = tested on: macrophages RAW264.7; design: method as in doi:10.3390/M1070; conditions: normal cell lines; cited from earlier work
[9] = Leishmania mexicana, read-out: L. mexicana EC50, promastigotes, average ± SEM
[10] = Trypanosoma equiperdum, average ± SEM
[11] = Trypanosoma congolense, average ± SEM
[12] = Trypanosoma brucei, read-out: T. b. brucei B48 EC50, multi-drug-resistant clone, average ± SEM
[13] = Leishmania mexicana, promastigotes, average ± SEM, read-out: L. mexicana EC50
[14] = Trypanosoma brucei, average ± SEM, at least three independent determinations
[15] = printed in brackets beside the µg/mL value
[16] = a = EC50 of control for 1, 3, 4
[17] = b = EC50 of control for 5, 6, 7

SMILES	T. b. brucei s427 SI (T. b. brucei s427 [3])	EC50 (T. b. brucei s427 [3]; Trypanosoma brucei) [µM]	T. equiperdum RF (T. equiperdum (BoTat1))	T. equiperdum SI (T. equiperdum (BoTat1))	EC50 (T. equiperdum (BoTat1); [10]) [µM]	T. congolense RF [4]	T. congolense SI [4]	EC50 [4, 11] [µM]	T. b. brucei B48 RF (T. b. brucei B48)	T. b. brucei B48 SI (T. b. brucei B48)	EC50 (T. b. brucei B48; [12]) [µM]	T. evansi RF (T. evansi (AnTat 3/3))	T. evansi SI (T. evansi (AnTat 3/3))	EC50 (T. evansi (AnTat 3/3); average ± SEM) [µM]	EC50 (HEK 293 cells) [µM]	EC50 [2, 13] [µM]	EC50 (T. b. brucei s427 [3]; [14]) [µM]	also measured
COc1ccc2c(c1OC)C(CC(C)=O)N(C)c1c-2ccc2cc3c(cc12)OCO3 (centres unmarked) [6-Acetonyl-5,6-dihydrochelerythrine]	–	–	–	–	–	–	–	–	–	–	–	–	–	–	–	–	–	activity against T. b. brucei s427 (T. b. brucei s427 [1]): no significant activity
COc1ccc(C(=O)C[C@H](O)c2c(O)cc(OC)cc2OC)cc1 [Compound 1, (S)-3-hydroxy-3-(2″-hydroxy-4″,6″-dimethoxyphenyl)-1-(4′-methoxyphenyl)propan-1-one]	>8.5	35.5 ± 3.6	0.60	>14	~20	6.9	>1.2	246 ± 5	1.4	>6.0	50.2 ± 15	1.3	>6.5	46 ± 2.4	> 300	–	–	EC50 [2, 9]: 581 ± 3 µM; EC50 (T. equiperdum (BoTat1); average ± SEM): 21.4 ± 3.9 µM; toxicity to HEK 293 cells at the highest concentration tested (HEK 293 cells): non-toxic
CC(=O)O[C@@H]1[C@H]2[C@H]3[C@H]([C@H](OC(C)=O)[C@H](OC(C)=O)[C@]2(C)[C@@H]2[C@@H]1[C@]1(C)C(=C[C@H]2C)OC(=O)[C@@]1(C)O)[C@]1(C)[C@H](C[C@@H]2O[C@@H]2[C@@H]1OC(C)=O)C(=O)[C@@H]3O [Compound 3, taccalonolide A]	>2.2	–	0.86	>2.6	55.8	1.6	>1.4	105 ± 41	0.7	>3.1	45.4 ± 4.1	1.0	>2.2	66.3 ± 9.5	> 143	> 285	64.7 ± 21.2	L. mexicana EC50 ([2]; promastigotes, average ± SEM): low activity; EC50 [5]: 45.4 to 66.3 µM; RF (cross-resistance) with B48, T. evansi and T. equiperdum ([5]; relative to s427): ≤ 1; activity against T. b. brucei s427 (T. b. brucei s427 [6]): 11.42 µg/mL; activity against T. b. brucei s427 (T. b. brucei s427 [6]; [15]): 16.3 µM
CCC(=O)O[C@H]1[C@@H](OC(C)=O)[C@H]2[C@H]([C@@H]3[C@@H](OC(C)=O)[C@@H]4[C@H]([C@H](C)C=C5OC(=O)[C@@](C)(O)[C@@]54C)[C@]31C)[C@@H](O)C(=O)[C@H]1C[C@@H]3O[C@@H]3[C@H](OC(C)=O)[C@]21C [Compound 4, Taccalonolide A 12-propanoate]	>2.6	–	1.5	>1.8	77.7 ± 10.5	>2.8	–	> 140	1.4	>1.9	75.1 ± 12.3	1.6	>1.7	82.7 ± 7.4	> 140	> 280	53.4	L. mexicana EC50 ([2]; promastigotes, average ± SEM): low activity; EC50 (T. b. brucei s427 [3]; average ± SEM, at least three independent determinations): 53.3 ± 8.6 µM; activity against T. b. brucei s427 (T. b. brucei s427 [6]): 3.13 µg/mL; activity against T. b. brucei s427 (T. b. brucei s427 [6]; [15]): 4.6 µM
CC(=O)O[C@H]1CC[C@]2(C)[C@H]3CC[C@]4(C)C(=CC[C@@]5(C)CCC(C)(C)C[C@H]54)[C@]3(C)CC[C@H]2C1(C)C [Compound 5, taraxerol acetate]	>3.1	138 ± 61	0.13	>20	~20	1.1	–	178 ± 14	0.75	>3.4	128 ± 5	0.4	>6.8	62.9 ± 1.5	> 427	–	–	EC50 [2, 9]: > 427 µM; EC50 (T. equiperdum (BoTat1); average ± SEM): 21.3 ± 0.3 µM; EC50 (all trypanosome species; Trypanosoma equiperdum, all but T. equiperdum, read-out: EC50 against most trypanosome species): > 60 µM; toxicity to HEK 293 cells at the highest concentration tested (HEK 293 cells): not toxic
COc1ccc2c(c1OC)CN(C)c1c-2ccc2cc3c(cc12)OCO3 [Compound 6, dihydrochelerythrin]	68.0	–	2.2	30.4	3.09 ± 0.52	6.0	11.4	8.3 ± 0.57	1.8	37.0	2.56	0.8	87	1.09 ± 0.06	94.4 ± 23.2	5.4 ± 0.6	1.37 ± 0.43	L. mexicana SI [2]: 18; EC50 ([2]; promastigotes, average ± SEM, read-out: L. mexicana EC50): 5.44 ± 0.57 µM; EC50 (T. b. brucei B48; read-out: T. b. brucei B48 EC50, multi-drug-resistant clone, average ± SEM): 2.55 ± 0.29 µM; EC50 [5]: 1.37 to 3.09 µM; EC50 [7]: 1.4 to 8.3 µM
CC(C)CNC(=O)/C=C/c1ccc2c(c1)OCO2 [Compound 7, fagaramide]	20.4	17.8 ± 7.3	1.5	13.4	27.1 ± 0.1	1.9	10.6	34.4 ± 5.7	0.6	33.8	10.9 ± 0.4	0.6	33.0	10.9 ± 0.4	364 ± 44	13.3 ± 0.4	–	L. mexicana SI [2]: 27; EC50 (all trypanosome species; Trypanosoma, read-out: EC50 against all trypanosome species (range)): 10.9 to 34.4 µM; EC50 (T. b. brucei s427 [8]): 7.3 µM; EC50 [7]: 10.9 to 34.4 µM; EC50 (macrophages RAW264.7): 215 µM
N=C(N)c1ccc(N=NNc2ccc(C(=N)N)cc2)cc1 [DA, diminazene aceturate, reference compound]	–	–	–	–	–	–	–	–	–	–	–	–	–	–	–	–	–	EC50 [4, 16]: 0.51 µM; EC50 [4, 17]: 0.46 µM
N=C(N)c1ccc(OCCCCCOc2ccc(C(=N)N)cc2)cc1 [PMD, pentamidine isethionate, reference compound]	–	–	–	–	–	–	–	–	approximately 50	–	–	–	–	–	–	–	–	EC50 ([2]; Leishmania mexicana, a = EC50 of control for 1, 3, 4, read-out: L. mexicana EC50): 1.1 µM; EC50 ([2]; Leishmania mexicana, b = EC50 of control for 5, 6, 7, read-out: L. mexicana EC50): 0.76 µM; EC50 (T. b. brucei s427 [3]; Trypanosoma brucei, a = EC50 of control for 1, 3, 4): 0.0066 µM; EC50 (T. b. brucei s427 [3]; Trypanosoma brucei, b = EC50 of control for 5, 6, 7): 0.0052 µM; EC50 (T. equiperdum (BoTat1); Trypanosoma equiperdum, a = EC50 of control for 1, 3, 4): 0.0081 µM; EC50 (T. equiperdum (BoTat1); Trypanosoma equiperdum, b = EC50 of control for 5, 6, 7): 0.0033 µM; EC50 (T. b. brucei B48; Trypanosoma brucei, read-out: T. b. brucei B48 EC50, a = EC50 of control for 1, 3, 4): 0.312 µM; EC50 (T. b. brucei B48; Trypanosoma brucei, read-out: T. b. brucei B48 EC50, b = EC50 of control for 5, 6, 7): 0.288 µM; T. b. brucei B48 RF (T. b. brucei B48; a = control for 1, 3, 4): 47.3; T. b. brucei B48 RF (T. b. brucei B48; b = control for 5, 6, 7): 55.4; EC50 (T. evansi (AnTat 3/3); [16]): 0.016 µM; EC50 (T. evansi (AnTat 3/3); [17]): 0.0025 µM

From paper PMC12156181, “Antitrypanosomal and Antileishmanial Activities of Tacca leontopetaloides Tubers and Zanthoxylum zanthoxyloides Stem Bark” (Molecules, 2025)
